Values after ≈ are worked out from the molar mass of the structure shown. Where two headings read alike, the source gives them in different places. Values belong to the compound of their own block, whether it stands above or below them.
Columns and labels:
[1] = CES1–/–, mouse, 1 h, 10 μM
Method: (§2) Briefly, intestinal tissue was homogenized over ice via probe sonication with 1:9 tissue to potassium phosphate buffer (0.1 M) conditions. Prodrugs were spiked in plasma or tissue homogenate at 10 μM final concentration with 0.2% DMSO v/v and incubated in triplicate for 0 and 60 min time points. At each time point, 100 μL of the sample was precipitated with 300 μL of methanol containing internal standard (IS; losartan, 0.5 μM). Precipitated samples were vortexed (30 s) and centrifuged at 10000g for 10 min at 4 °C. After centrifugation, 100 μL of supernatant was aliquoted and submitted for analysis. Prodrug disappearance over time was monitored by liquid chromatography–mass spectrometry (LC–MS) through peak area ratios between the analyte and internal standard.
(§3) Chromatographic analysis was performed on a Dionex ultra-high-performance LC system coupled with a Q Exactive Focus Orbitrap mass spectrometer (Thermo Fisher Scientific Inc., Waltham, MA). Separation was achieved using an Agilent Eclipse Plus column (100 × 2.1 mm i.d.; maintained at 35 °C) packed with a 1.8 μm C18 stationary phase. The mobile phase used was composed of 0.1% formic acid in acetonitrile and 0.1% formic acid in water with gradient elution, starting with 2.5% organic phase (from 0 to 0.25 min) and linearly increasing to 99% (from 0.25 to 1.25 min) and re-equilibrating to 2.5% by 4 min. The total run time for each analyte was 5 min. Pumps were operated at a flow rate of 0.4 mL/min. The mass spectrometer controlled by Xcalibur software 4.0.27.13 (Thermo Scientific) was operated with an HESI ion source in positive ionization mode for all compounds. Compounds were identified in the full-scan mode with m/z ranging from 75 to 1125.

[2] = CES1–/–, mouse, 1 h, 10 μM; remark: listed apart in the source
Method: as §2, §3

[3] = in vitro; settings: CES1–/–, mouse, plasma
Method: as §2, §3

[4] = in vitro; settings: CES1–/–, mouse, tissue homogenate
Method: as §2, §3

[5] = test system: hematologic malignancies; parameters: method as in PMID 13918321; settings: DON combination with standard 6-mercaptopurine (6-MP) therapy; cited from earlier work
[6] = parameters: method as in PMID 13489662; settings: 2 weeks or more of DON therapy; cited from earlier work
[7] = test system: P493B lymphoma cells; experiment: Cell viability assay; type: cell-based; settings: Homo sapiens, 72 h, 72 h incubation
Method: Cell proliferation assays were performed as we have previously described.[19] Briefly, P493B lymphoma cells were plated in 96-well plates at a density of 20 000 cells/well in a final volume of 100 μL of growth media. P11, or DRP-104, was added to cells in half-log serial dilutions with a final concentration of 0.2% DMSO. Cells were allowed to proliferate for 72 h, and thereafter, 20 μL of CellTiter 96 AQueous (Promega no. 3580) was added per well and incubated for 2 h. Absorbance was measured at 490 nm. Relative cell viability was calculated from the difference between untreated cell wells (100%) and media well without cells (0%).

[8] = Aqueous solubility assay in PBS buffer (pH 7.4); type: physicochemical; settings: PBS buffer pH 7.4; 37 °C; 1 h
Method: (§1) The aqueous solubility was determined as previously reported with minor modifications.[48] Briefly, an excess amount of P11 or DRP-104 was added to PBS buffer (pH 7.4) and sonicated for 1 h at 37 °C to ensure saturation. After 1 h, the solution was filtered (0.45 μm PTFE), and the filtrate was diluted appropriately, and the concentration of each analyte was determined via LC–MS. Chemical stabilities of DRP-104 and P11 were done as previously described[18] with modifications. For chemical stability, prodrugs were spiked (10 μM) in buffer at pH 7.4 and incubated at 37 °C for 24 h. Prodrug disappearance was monitored using the developed HRMS methods.

[9] = test system: P493B lymphoma cells suspended in human plasma; experiment: Human tumor cell to plasma partitioning assay; type: cell-based; settings: 20 μM; 1 h; human plasma fraction
Method: Human tumor cell to plasma partitioning assays were conducted as we have previously described.[25] Briefly, P493B lymphoma cells were grown at 37 °C, in a humidified atmosphere with 5% CO2. Cell confluency was estimated, and cells were harvested after achieving >80% confluency and centrifuged at 200g for 5 min at 25 °C. The obtained cell pellet was resuspended in 20 mL of Dulbecco’s phosphate-buffered saline (DPBS; Gibco, USA, cat. no. 14-190-144) maintained at 37 °C, and cell count was determined using an automated cell counter (Bio-Rad, USA). Cell suspension in DPBS was further centrifuged at 200g for 5 min at 25 °C, and the cell pellet was resuspended in human plasma (Innovative Research, USA) for partitioning assessment. The final cell density after resuspending in plasma was 10 million cells/mL of plasma. Partitioning assessment was performed in triplicate. Preincubated (37 °C for 5 min) cell–plasma suspension was spiked with DRP-104 or P11 at a final concentration of 20 μM and incubated at 37 °C for 1 h. Following incubation, a 1 mL aliquot of cell–plasma suspension was centrifuged at 1000g for 5 min at 4 °C, and supernatant plasma as well as the cell pellet was collected and stored at −80 °C until bioanalysis. Both plasma and cell pellet fractions were analyzed for intact prodrug and DON levels. […]

[10] = Chemical (aqueous) stability in buffer pH 7.4; type: physicochemical; settings: 10 μM, pH 7.4 PBS, 37 °C, 24 h, HRMS/LCMS
Method: as §1

[11] = Metabolic stability in mouse intestinal homogenate (GIh)
Method: as §2, §3

[12] = parameters: method as in printed; settings: background statement; ref not given; cited from earlier work
[13] = Metabolic stability in mouse plasma
Method: as §2, §3

[14] = parameters: method as in PMID 36383674; settings: cited from earlier work
[15] = supplementary CSV, unit not given, matches Table 1 % remaining at 1 h, in %

SMILES: CC(C)(C)OC(=O)[C@H](CCC(=O)C=[N+]=[N-])NC(=O)[C@H](Cc1c[nH]c2ccccc12)NC(=O)C12CCN(CC1)CC2 [Prodrug P8, tert-Butyl (S)-2-((S)-3-(1H-Indol-3-yl)-2-(quinuclidine-4-carboxamido)propanamido)-6-diazo-5-oxohexanoate]
Plasma [1]: 106 ± 2
Intestinal homogenate [2]: 71 ± 0
remaining at 1 h, 10 µM [3]: 106 ± 2%
remaining at 1 h, 10 µM [4]: 71%

SMILES: [N-]=[N+]=CC(=O)CC[C@H](N)C(=O)O [DON, 6-Diazo-5-oxo-L-norleucine]
patients with complete bone marrow remissions [5]: 42%
patients with disease stability or regression [6]: 66%

EC50 [7]: ~1000 nM
solubility at 1 h [8]: 240 ± 30 µg/mL (≈ 544 µM)
chemical stability in buffer [10]: remained intact without any degradation
chemical stability in buffer ([10]; listed as DRP 104): no degradation
remaining at 1 h, 10 µM ([11]; CES1–/–, mouse, intestinal homogenate): 0%
Intestinal homogenate [11, 15]: 0 ± 0
remaining at 1 h, 10 µM ([13]; CES1–/–, mouse, plasma): 94 ± 1%
Plasma [13, 15]: 94 ± 1
SMILES: CC(=O)N[C@@H](Cc1c[nH]c2ccccc12)C(=O)N[C@@H](CCC(=O)C=[N+]=[N-])C(=O)OC(C)C [DRP-104, isopropyl (S)-2-((S)-2-acetamido-3-(1H-indol-3-yl)-propanamido)-6-diazo-5-oxo-hexanoate, reference compound]
stability and DON release in human plasma [9]: stable in human plasma with no DON release
aqueous solubility (intrinsic) [12]: < 1 mg/mL
fold greater delivery of DON to tumor versus GI tissues [14]: 11

From PMC10683027, “Discovery of tert-Butyl Ester Based 6-Diazo-5-oxo-L-norleucine Prodrugs for Enhanced Metabolic Stability and Tumor Delivery” (Journal of Medicinal Chemistry, 2023)
